# Where two headings read alike, the source gives them in different places.
# Experiments:
# Mongrel dogs = assay: Protocol HV: acute left ventricular failure by coronary microsphere embolization, closed chest; assay type: in vivo; settings: for overall result in the model of acute left ventricular failure / preload reduction: dog, in vivo
# Procedure: - Experiments were carried out in 21 mongrel dogs of either sex with body weight between 19 and 39 kg. Anesthesia was induced with sodium pentobarbital, 25 mg/kg of body weight intravenously, and small supplementary doses were given as necessary to maintain a constant level of anesthesia. The dogs were placed in the left lateral position and ventilation was maintained through a cuffed endotracheal tube with a volume-controlled respirator (Harvard Apparatus Co., Millis, Massachusetts). Polyethylene cannuleae were placed into the jugular and femoral veins for intravenous infusions and drug adminstration. Electrocardiograms (lead aVF) were monitored continuously throughout the experiments.
# A polyethylene cannula was introduced into the aorta through the left carotid artery to record arterial pressure. (Stantham P23 ID transducer, Stantham Instruments, Inc. Oxnard, California). A Millar microtip transducer catheter (Millar Instruments, Inc., Houston, Texas) was introduced into the left ventricular cavity through the femoral artery to measure left ventricular pressures. For adjustment of zero level, left ventricular pressure was also measured through the fluid-filled lumen in the Millar catheter (Statham P23 ID transducer). The maximal rate of rise of left ventricular pressure, LV dP/dt, was recorded by means of a differentiator. All these parameters were recorded continuously on a polygraph (Gould 2800, Gould Instruments, Cleveland, Ohio). Cardiac output was determined by the thermodilution technique, using a thermistor catheter in the pulmonary artery and calculated by a cardiac output computer (Elecath, Electro- catheter Corp., Rahway, New Jersey). The coefficient of variation for duplicate CO measurements was 5%. In addition to the parameters directly obtained, total peripheral vascular resistance was calculated from the ratio of […] and cardiac output. Stroke volume was calculated by dividing cardiac output by heart rate. Heparin (Invendex) (5000 IU) was administered to avoid clotting of the catheters.
# To induce acute left vetricular failure, initially the left main coronary artery was catheterized with a Judkin coronary artery catheter (7F, ISCI Cardiology and Radiology Products, Billerica, Massachusetts) under fluoroscopic control. It was introduced through a femoral artery, and polystyrene microspheres (3M Company, St. Paul, Minnesota) with a diameter of 52. 5 ± 4.0 µm (mean±SD) were injected into the coronary artery. The microspheres were used in a concentration of 1 mg (i.e., 12,000) per ml saline. The first dose of microsphere solution was 0.5 mi/kg body weight, and all subsequent doses were 0.25 ml/kg body weight, administered every 5 minutes. Administration of microspheres was discontinued when LV/dP/dt had been reduced by 30% or more when measured 4 minutes after the last dose. All dogs received prophylactic antiarrhythmic treatment with intravenous lidocaine, 1.5 mg/kg body weight as a bolus 20 min after the end of embolization, followed by a continuous infusion of […].
# Forty-five minutes were allowed to elapse to verify the stability of the preparation. If Lv dP/dt or left ventricular end diastolic pressure had changed by 20% or more between 30 and 45 minutes after embolization, the dogs were excluded from this study and not randomized. Forty-five minutes after the end of embolization, the dogs were assigned randomly to three groups: a) Berberine-treated group, 0.2 mg/kg/ min, dissolved in 60 ml of a solution of 5% dextrose in water administered in a constant infusion during 30 minutes; b) ouabain-treated group, 0.03 mg/kg was administered in 60 ml of a 5% solution of dextrose in water during 30 minutes; and c) Control group, administration of 60 ml of a 5% solution of dextrose in water during 30 min. […]
# [1] = system: closed-chest anesthetized dogs; settings: for change of diastolic pressure: berberine in addition to digitalis; for antiarrhythmic and antiarrhythmogenic result in the ouabain experiment: dog, in vivo
# Procedure: A study was carried out to examine the effects of the simultaneous administration of berberine on digitalis (i.e. ouabain) produced arrhythmias.
# The experiments were conducted in closed-chest anesthetized dogs which were randomized to three groups. All received ouabain 0.03 mg/Kg as a bolus intravenously and thereafter a continuous infusion with a constant rate of 0.0006 mg/Kg/min until death. […] The second group received simultaneously berberine 1 mg/Kg intravenously as a bolus and then 0.2 mg/Kg/min as a continous infusion. The third group received berberine only after the appearance of VEA in a frequency of 50% of more of all systoles.
# Moreover, the effects of intravenous bolus injection of berberine (0.4 to 1 mg/Kg) was studied (in comparison to dextrose 5% injection).
# Sprague-Daley rats = assay: Rat model of acute coronary artery occlusion, mortality; assay type: in vivo; settings: for antiarrhythmic control after coronary artery occlusion: rat, in vivo
# Text: Another series of experiments were done using the rat model of acute coronary artery occlusion. In these experiments the effect of berberine was examined on mortality. Thus, Sprague-Daley rats (Charles River) weighing over 300 grams were anesthetized with ether, their chest opened in the 5th left intercostal space their heart everted and the left main coronary occluded with a surgical stitch. Thereafter the heart was repositioned and the thorax closed with a purse string suture, as described in more detail by us previously (Maclean, Fishbein, M. C. Braunwald, E. and Maroco, P. R., Long Term Presentation of Ischemic Myocardium After Experimental Coronary Artery Occlusion. J. Clin. Inv. 61, pages 541-551, 1978 and also in Maclean, D., Fishbein, M. D., Maroko, P. R. and Braunwald, Hyaluronidase-Induced Reductions In Myocardial Infarct Size. Science, 194, pages 199-200 (1976)). The mortality in rats weighing over […] was greater than in smaller rats.
# After finishing the surgical procedure, the rats were randomized into controls (injection of 5% dextrose in water) and berberine treated (1 mg/Kg intravenously as a bolus).
# [2] = system: closed-chest barbiturate anesthetized dogs; assay: Endotoxic (LPS) shock in dogs; assay type: in vivo
# Procedure: Nineteen closed-chest barbiturate anesthetized with artificial respiration dogs were studied. All measurements were done by the technique described before LPS.
# At this time, i.e., two hours and fifteen minutes after administration of LPS, 1000 ml of 5% of dextrose in water was administered to all dogs during the next forty-five minutes.
# Urinary output during the second hour of shock (before berberine or placebo treatments) and the third hour of shock (when the dogs were treated with either berberine of placebo) were compared in each dog. This analysis is of crucial importance since it would indicate the restoration of effective organ perfusion which in the case of the kidneys results in urinary output.
# [3] = berberine started after the appearance of 50% of VEA
smiles,measurement,setting,value
COc1ccc2cc3[n+](cc2c1OC)CCc1cc2c(cc1-3)OCO2 [berberine],time to increase of LVdP/dt and reduction of left ventricular end diastolic pressure,Mongrel dogs; 0.2 mg/kg/min infusion,≤ 2.5 min
same,Diastolic and mean arterial pressure,"Mongrel dogs; 0.2 mg/kg/min, 30 min",significantly although only slightly reduced
same,Systolic arterial pressure,"Mongrel dogs; 0.2 mg/kg/min, 30 min",not significantly changed
same,decrease of total peripheral vascular resistance,"Mongrel dogs; 0.2 mg/kg/min, 30 min",19 ± 2%
same,fall of heart rate,"Mongrel dogs; 0.2 mg/kg/min, 30 min",8 beats/min
same,increase of LVdP/dt,"Mongrel dogs; 0.2 mg/kg/min, end of the 30-minute infusion",28 ± 8%
same,cardiac output,"Mongrel dogs; after infusion, from 1.76 ± 0.15",1.93 ± 0.16 L/min
same,Stroke volume,"Mongrel dogs; after infusion, from 14.6 ± 1.9",17.3 ± 2.7 mL
same,pulse pressure,"Mongrel dogs; after infusion, from 28 ± 2",33 ± 4 mmHg
same,Total peripheral vascular resistance,"Mongrel dogs; after infusion, from 4915 ± 559",4004 ± 496 10^-5N·S·cm^-5
same,decrease of left venticular end diastolic pressure,Mongrel dogs; end of the 30-minute infusion,38 ± 4%
same,Left venticular end diastolic pressure,"Mongrel dogs; end of the 30-minute infusion, from 13.3 ± 0.8",8.1 ± 0.5 mmHg
same,LVdP/dt,"Mongrel dogs; end of the 30-minute infusion, from 1572 ±80",2010 ± 95 mmHg/s
same,"occurrence of any arrhythmias (VEA more than 25%, VT or death)","[1]; after 60 minutes, all sixteen controls had",three had arrhythmias and six did not
same,"occurrence of any arrhythmias (VEA more than 25%, VT or death)","[1]; after 90 minutes, all controls had",four had arrhythmias and five did not
same,"occurrence of any arrhythmias (VEA more than 25%, VT or death)","[1]; at 30 minutes, control twelve had, four did not",one had arrhythmia and eight did not
same,"occurrence of any arrhythmias (VEA more than 25%, VT or death)","[1]; at 45 minutes, control fourteen had, two did not",three had arrhythmias and six had not
same,change of diastolic pressure,[1]; 10 minutes,-9±5%
same,change of diastolic pressure,[1]; 20 minutes,-13±9%
same,change of diastolic pressure,[1]; 30 minutes,-13±10%
same,change of diastolic pressure,[1]; 60 minutes,-20±11%
same,amount of ouabain that provoked VT,[1]; [3],0.080 mg/kg
same,delay of the appearance of sustained VT,[1]; [3],more than 250%
same,time of appearance of sustained VT,"[1]; berberine started after the appearance of 50% of VEA, control 30.1±6.5",84.5 ± 13.8 min
same,dose of ouabain to provoke VT,[1]; berberine treated dogs (simultaneous),0.088 mg/kg
same,injections effective in reverting VT into sinus rhythm within five minutes,"[1]; intravenous bolus 0.4 to 1 mg/Kg, placebo none of twelve",30 out of 41
same,time of appearance of 25% of VEA,"[1]; ouabain infusion + simultaneous berberine 1 mg/Kg bolus then 0.2 mg/Kg/min, controls 22±4.7",66.5 ± 14.6 min
same,prolongation of the time of appearance of VEA and VT,[1]; simultaneous berberine,around 300%
same,time of appearance of 50% of VEA,"[1]; simultaneous berberine, controls 23.9±4.7",66.7 ± 15.3 min
same,time of appearance of VT,"[1]; simultaneous berberine, controls 30.1±6.5",96.1 ± 15.1 min
same,ventricular fibrillation,[1]; two berberine dogs,ventricular fibrillation reverted without any other therapy
same,rats that died within the first fifteen minutes,"Sprague-Daley rats; 1 mg/Kg intravenously as a bolus, controls seventeen out of twenty-four",six out of twenty- two
same,systemic systolic arterial pressure,"[2]; after 1000 ml of 5% dextrose in water, controls 107±5, before shock 136±10",127±6 mmHg
same,dP/dt higher than before shock,[2]; after dextrose,approximately 50%
same,peak left ventricular dP/dt,"[2]; after dextrose, before shock 2565±166",3740 ± 305 mmHg/s
same,cardiac arrhythmias or conduction defect,"[2]; dog, in vivo",No cardiac arrhythmias or conduction defect was observed
same,increase of urinary output from the second (pre-treatment) to the third (treatment) hour,"[2]; first statement, control -51.7±32.9",30.5 ± 32.9 mL/h
same,increase of urinary output from the second (pre-treatment) to the third (treatment) hour,[2]; second statement,30.5±14.3 mi
same,minimal dose that results in an elevation of systemic systolic arterial pressure by at least 5 mmHg,[2]; two hours after LPS 5 mg,0.053 ± 0.008 mg/kg/min
same,peak left ventricular dP/dt,"[2]; within fifteen minutes of treatment, control 1050±145",2062±204 mmHg/s
same,pulse pressure (systolic minus diastolic pressures),"[2]; within fifteen minutes of treatment, from 24±2",32±2 mmHg
same,systolic pressure,"[2]; within fifteen minutes of treatment, placebo 50±6",66±4 mmHg
COc1ccc2cc3[n+](cc2c1O)CCc1cc2c(cc1-3)OCO2 [berberrubine],overall result in the model of acute left ventricular failure,Mongrel dogs,perform in an equivalent manner
same,preload reduction,Mongrel dogs,comparable preload reduction
same,antiarrhythmic and antiarrhythmogenic result in the ouabain experiment,[1],satisfactory results
same,antiarrhythmic control after coronary artery occlusion,Sprague-Daley rats,like antiarrhythmic control is observable
same,control of endotoxic shock caused by LPS,"[2]; dog, in vivo",comparable results
COc1cc2c(cc1O)C[C@H]1c3cc(O)c(OC)cc3CCN1C2 [coreximine],overall result in the model of acute left ventricular failure,Mongrel dogs,perform in an equivalent manner
same,preload reduction,Mongrel dogs,comparable preload reduction
same,antiarrhythmic and antiarrhythmogenic result in the ouabain experiment,[1],satisfactory results
same,antiarrhythmic control after coronary artery occlusion,Sprague-Daley rats,like antiarrhythmic control is observable
same,control of endotoxic shock caused by LPS,"[2]; dog, in vivo",comparable results
